Laboratory results taken from patent US10745448B2, “Antiviral peptide and use therefor” (priority 2017, dated 2020).
Where “and” joins values, the source holds several entries; their conditions need not be identical. Equal entries are not always repeated. No end group written: not given here.

System: vesicular stomatitis Indiana virus (Indiana VSV)
Type: cell-based

“MLSYLIFALAVSPILGKKRTLRKNDRKKR-CONH2 (MLSYLIFALAVSPILGKKRTLRKNDRKKR-NH2) [Sample 1]” was tested, and the “Virus infectivity (virus titer)” value was 9.11 log10 PFU/mL and 5.90 log10 PFU/mL.
“MKTIIALSYIFCLALGKKRTLRKNDRKKR-CONH2 (MKTIIALSYIFCLALGKKRTLRKNDRKKR-NH2) [Sample 2]” was tested, and the “Virus infectivity (virus titer)” value was 9.07 log10 PFU/mL and 5.95 log10 PFU/mL.
“MKAIIVLLMVVTSNAKKRTLRKNDRKKR-CONH2 (MKAIIVLLMVVTSNAKKRTLRKNDRKKR-NH2) [Sample 3]” was tested, and the “Virus infectivity (virus titer)” value was 9.23 log10 PFU/mL and 6.34 log10 PFU/mL.
